# Earlier results in patent EP3959200B1, “NEW TRIAZOLE AND TRIAZOLOTHIADIAZINE DERIVATIVES EXERTING CYTOTOXIC AND APOPTOTIC EFFECTS ON A549 CELLS THROUGH AKT INHIBITION” (Anadolu Universitesi, priority 2020, dated 2022).
# Read-outs that look alike come from different tables or passages of the source.
# What was measured:
# [1] = system: kidney fibroblast (BHK-21) cells; details: cited from earlier work
# [2] = system: lung cancer (H157) cells; details: cited from earlier work
# [3] = system: lung cancer (H-157) cell line; details: cited from earlier work
# [4] = system: 60 cell lines derived from lung, colon, skin, kidney, ovarian, central nervous system and blood cancers; details: all cells tested; cited from earlier work
# [5] = system: human colon epithelial cells (HT-29); details: cited from earlier work
# [6] = system: human breast cancer (MCF-7); details: cited from earlier work
# [7] = system: human cervical carcinoma (HeLa); details: cited from earlier work
# [8] = system: human HCC (HepG2) cell line; details: cited from earlier work
# [9] = system: breast adenocarcinoma (MCF-7); details: MCF-7, MTT; read-out: LC50 (the source's name); cited from earlier work
# [10] = system: human epithelial cervical carcinoma (HeLa) cells; details: MTT; cited from earlier work
# [11] = system: human lung cancer (A549); details: cited from earlier work
# [12] = system: colon carcinoma (HCT116); details: HCT116, MTT; read-out: LC50 (the source's name); cited from earlier work
# [13] = system: Huh7 cell line; details: cited from earlier work
# [14] = system: kidney cancer (OU-31) cell line; set-up: concentration or dose not given beside the values; details: cited from earlier work
# [15] = system: leukemia (MOLT-4) cell line; details: cited from earlier work
# [16] = system: breast adenocarcinoma (MCF-7); details: cited from earlier work
# [17] = system: ovarian carcinoma (SKOV3); details: cited from earlier work
# [18] = system: tubulin; details: tubulin polymerization; cited from earlier work
# [19] = system: human lung adenocarcinoma (A549); details: cited from earlier work
# [20] = system: K562 cells; details: cited from earlier work
# [21] = system: leukemia (CCRF-CEM, RPMI-8226 and SR), non-small cell lung cancer (HOP-92), melanoma (UACC-62) and kidney cancer (UO-31) cells; details: across CCRF-CEM, RPMI-8226, SR, HOP-92, UACC-62, UO-31; cited from earlier work
# [22] = system: human hepatocellular carcinoma (HCC) cell line (HepG2); details: HepG2, MTT; cited from earlier work
# [23] = system: human breast cancer (MCF-7); details: cited from earlier work; remark: listed apart in the source
# [24] = system: PC-3 cell line; details: cited from earlier work
# [25] = system: HeLa cell line; details: cited from earlier work
# [26] = system: HCT116 cell line; details: cited from earlier work
# [27] = system: PC-3 cells; details: cited from earlier work
# [28] = system: human gastric cancer (NUGC), human liver cancer (HA22T and HepG2), nasopharyngeal cancer (HONE1), human breast cancer (MCF); details: all other cancer cells tested except DLD1 cells; cited from earlier work
# [29] = system: normal fibroblast (WI38) cells; details: cited from earlier work
# [30] = system: A549; details: cited from earlier work
# [31] = system: 60 cell lines derived from leukemia, non-small cell lung cancer, skin, ovarian, prostate and breast cancers; details: all cancer types tested; cited from earlier work
# [32] = system: Ehrlich acid tumor (EAC); details: 25 mg/kg, body weight; cited from earlier work
# [33] = system: HCC rats; details: cited from earlier work
# [34] = molecular target: alkaline phosphatase (ALP) enzyme; details: cited from earlier work
structure (smiles),measurement,setting,value
CC[C@]1(O)C[C@H]2CN(CCc3c([nH]c4ccccc34)[C@@](C(=O)OC)(c3cc4c(cc3OC)N(C=O)[C@H]3[C@@](O)(C(=O)OC)[C@H](OC(C)=O)[C@]5(CC)C=CCN6CC[C@]43[C@@H]65)C2)C1 [vincristine],inhibition,[1],74.5%
same,IC50,[2],1.03 ± 0.04 µM
same,IC50,[3],1.03 ± 0.04 µM
"Fc1cc(C2=Nn3c(COc4ccccc4Cl)nnc3SC2=Cc2ccc(Cl)cc2)c(Cl)cc1Cl [7-(4-chlorobenzylidene)-6-(2,4-dichloro-5-fluorophenyl)-3-((2-chlorophenoxy)methyl)-1,2,4-triazolo[3,4-b]-1,3,4-thiadiazine]",GI50,[4],< 10 µM
"CS(=O)(=O)c1ccc(Cc2nnc3n2N=C(c2ccc(-c4ccccc4)cc2)CS3)cc1 [6-(biphenyl-4-yl)-3-(4-(methylsulfonyl)benzyl)-7H-[1,2,4]triazolo[3,4-b][1,3,4]thiadiazine]",IC50,[5],12.5 µM
"COc1ccc(-n2nc(-c3nnc(SCCCO)n3-c3ccccc3)cc2-c2ccccc2)cc1 [3-((5-(1-(4-Methoxyphenyl)-5-phenyl-1H-pyrazole-3-yl)-4-phenyl-4H-1,2,4-triazole-3-yl)thio)propane-1-ol]",IC50,[6],2.72 µM
same,IC50,[7],2.98 µM
COc1cccc2c1C(=O)c1c(O)c3c(c(O)c1C2=O)C[C@@](O)(C(=O)CO)C[C@@H]3O[C@H]1C[C@H](N)[C@H](O)[C@H](C)O1 [doxorubicin],IC50,[8],36.3 µM
same,CC50,[9],26.1 µM
same,EC50,[10],2.5 µM
same,IC50,[11],4.52 µM
same,CC50,[12],37.7 µM
same,IC50,[7],8.72 µM
"CCc1cccc2c3c([nH]c12)C(CC)(Cc1n[nH]c(=S)n1C)OCC3 (centres unmarked) [5-[(1,8-Diethyl-1,3,4,9-tetrahydropyrano[3,4-b]indole-1-yl)methyl]-4-methyl-2,4-dihydro-3H-1,2,4-triazole-3-thione]",IC50,[13],4.29 µM
"O=C(CSc1nnc2n1N=C(c1ccc(Cl)cc1)CS2)c1ccc(F)cc1 [2-((6-(4-Chlorophenyl)-7H-[1,2,4]triazolo[3,4-b][1,3,4]thiadiazine-3-yl)thio-1-(4-fluorophenyl)ethanone]",growth,[14],48.14%
same,growth,[15],49.82%
"COc1cc(-c2nnc3n2N=C(c2ccc(Br)cc2)CS3)cc(OC)c1OC [6-(4-bromophenyl)-3-(3,4,5-trimethoxyphenyl)-7H-[1,2,4]triazolo[3,4-b][1,3,4]thiadiazine]",IC50,[16],3.34 ± 0.02 µM
same,IC50,[17],0.3 ± 0.65 µM
same,IC50,[18],1.03 µM
same,IC50,[19],3.15 ± 0.01 µM
"CC(=O)Nc1ccc(OCC2=NNC(SCC(=O)Nc3ccc(Br)cc3)N2Cc2ccccc2)cc1 (centres unmarked) [2-[(3-{[4-(acetylamino)phenoxy]methyl}-4-benzyl-4,5-dihydro-1H-1,2,4-triazole-5-yl)sulfanyl]-N-(4-bromophenyl)acetamide]",IC50,[20],7.71 µM
"OC(c1ccccc1)c1nnc(SCc2ccccc2)n1Cc1ccccc1 (centres unmarked) [4-Benzyl-3-(benzylthio)-5-[hydroxy(phenyl)methyl]-4H-1,2,4-triazole]",antiproliferative activity,[21],25-58%
"S=c1[nH]nc(OCc2ccccc2)n1N=Cc1c[nH]nc1-c1ccc(Cl)cc1 [4-((3-(4-chlorophenyl)-1H-pyrazole-4-methylene)amino)-5-(benzyloxy)-2,4-dihydro-1,2,4-triazole-3-thione]",IC50,[22],0.018 µM
"CC(C)(c1ccc(Cl)cc1)c1nnc2n1N=C(c1ccc(OC(F)(F)F)cc1)CS2 [3-(2-(4-chlorophenyl)propane-2-yl)-6-(4-(trifluoromethoxy)phenyl)-7H-[1,2,4]triazolo[3,4-b] [1,3,4]thiadiazine]",IC50,[11],18.2 µM
same,IC50,[23],10.5 µM
"Clc1ccc(C2=Nn3c(nnc3-c3cccnc3)SC2)cc1Cl [6-(3,4-dichlorophenyl)-3-(pyridine-3-yl)-7H-[1,2,4]triazolo[3,4-b][1,3,4]thiadiazine]",IC50,[2],0.96 ± 0.43 µM
"COc1cc(C2=Nn3c(nnc3-c3ccccc3)SC2)cc(OC)c1OC [3-phenyl-6-(3,4,5-trimethoxyphenyl)-7H-[1,2,4]triazolo[3,4-b][1,3,4]thiadiazine]",IC50,[16],0.7 ± 0.04 µM
same,IC50,[17],4.63 ± 0.09 µM
same,IC50,[18],1.61 µM
same,IC50,[19],3.71 ± 0.13 µM
"COc1cc(-c2nnc(SCC(=O)c3ccc(C)cc3)n2N)cc(OC)c1OC [2-(4-amino-5-(3,4,5-trimethoxyphenyl)-4H-1,2,4-triazole-3-ylthio)-1-(p-tolyl)ethanone]",IC50,[24],31.3 µM
same,IC50,[25],2.94 µM
same,IC50,[26],0.37 µM
"Cc1ccc(C(C)C)c(OCc2nnc(SCC(=O)Nc3ccc(S(N)(=O)=O)cc3)n2Cc2ccccc2)c1 [2-{ [3-[[5-Methyl-2-(propane-2-yl)phenoxy]methyl)-4-benzyl-4,5-dihydro-1H-1,2,4-triazole-5-yl]sulfanyl}-N-(4-sulfamoilphenyl)acetamide]",IC50,[27],5.96 µM
"Cc1ccc(COc2nn(CN3CCOCC3)c(=S)n2N=Cc2c[nH]nc2-c2ccc(F)cc2)cc1 [4-((3-(4-fluorophenyl)-1H-pyrazole-4-methylene)amino)-2-(morpholinomethyl)-5-(4-methylbenzyloxy)-2,4-dihydro-1,2,4-triazole-3-thione]",IC50,[22],0.034 µM
"c1ccc(C2=Nn3c(nnc3-c3ccncc3)SC2)cc1 [6-phenyl-3-(pyridine-4-yl)-7H-[1,2,4]triazolo[3,4-b][1,3,4]thiadiazine]",IC50,[28],< 0.8 µM
same,IC50,[29],> 10 µM
"CS(=O)(=O)c1ccc(Cc2nnc3n2N=C(c2ccccc2)CS3)cc1 [3-(4-(methylsulfonyl)benzyl)-6-phenyl-7H-[1,2,4]triazolo[3,4-b][1,3,4]thiadiazine]",IC50,[5],25 µM
"Cc1ccc(C(C)C)c(OCC2=NNC(SCC(=O)Nc3ccc(Cl)cc3)N2Cc2ccccc2)c1 (centres unmarked) [2-{[3-[[5-methyl-2-(propane-2-yl)phenoxy]methyl]-4-benzyl-4,5-dihydro-1H-1,2,4-triazole-5-yl]sulfanyl}-N-(4-chlorophenyl)acetamide]",IC50,[30],7.9 µM
"Fc1cc(-c2nnc3n2N=C(c2ccc(Cl)cc2)CS3)c(Cl)cc1Cl [3-(2,4-Dichloro-5-fluorophenyl)-6-(4-chlorophenyl)-1,2,4-triazolo[3,4-b]-1,3,4-thiadiazine]",GI50,[31],1.06 to 25.4 µM
"Nn1c(S)nnc1-c1ccccc1Cl [4-amino-5-mercapto-3-(2-chlorophenyl)-1,2,4-triazole]",tumor cell inhibition (TCI),[32],63.59%
"O=C(CNNc1nnc2n1NC=C(c1ccccc1)S2)c1ccccc1 [1-phenyl-2-(2-(7-phenyl-5H-[1,2,4]triazolo[3,4-b][1,3,4]thiadiazine-3-yl)hydrazinyl)ethanone]",inhibition of hepatic tyrosine kinase (HTK) expression,[33],45%
same,reduction of vascular endothelial growth factor (VEGF) level,[33],30%
same,improvement of liver level of glutathione (GSH),[33]; compared to the HCC group,99%
same,improvement of liver level of lipid peroxides,[33]; compared to the HCC group,62%
same,IC50,[8],19.6 µM
"O=c1oc2ccccc2cc1C1=Nn2c(nnc2-c2cc3ccccc3oc2=O)SC1 [3,3'-(7/7-[1,2,4]Triazolo[3,4-b][1,3,4]thiadiazine-3,6-diyl)-bis(2H-chromen-2-one)]",IC50,[34],1.15 ± 1 µM
